In ChEMBL document CHEMBL3124877, “Structure-activity-relationship studies around the 2-amino group and pyridine core of antimalarial 3,5-diarylaminopyridines lead to a novel series of pyrazine analogues with oral in vivo activity” (J Med Chem, 2013):

Legend:
Liver microsome [1] = test: (§1) Half life in human liver microsomes by LC-MS/MS analysis; format: ADME; details: microsomes
physchem = details: octanol/water, pH 7.4
Liver microsome [2] = details: human, microsomes
[3] = as §1; format: ADME; details: liver microsomes
in vitro = details: human, liver microsomes
Liver microsome [4] = test: Metabolic stability in rat liver microsomes; format: ADME
Plasma = test: Apparent plasma concentration in mouse infected with Plasmodium berghei ANKA at 3 mg/kg, po measured after 24 hrs; format: ADME, organism-based; design: dose 3 mg/kg, route oral; details: in vivo
[5] = Apparent Cmax in mouse infected with Plasmodium berghei ANKA at 3 mg/kg, po measured after 24 hrs; format: ADME, organism-based; design: dose 3 mg/kg, route oral; details: in vivo
[6] = Apparent AUC in mouse infected with Plasmodium berghei ANKA at 3 mg/kg, po measured after 24 hrs; format: ADME, organism-based; design: time < 24 hr, dose 3 mg/kg, route oral; details: in vivo

t1/2 (Liver microsome [1])	logD (physchem)	CLH (Liver microsome [2])	half-life [3]	microsomal CLint (in vitro)	Stability (Liver microsome [4])	Cave (Plasma)	Cmax [5]	AUC at 24 h [6]	Compound
0.683 h	2.5	11.3 µL/min/mg	–	–	–	–	–	–	COc1ccc(-c2cncc(-c3ccc(S(C)(=O)=O)cc3)c2)cn1
–	2.3	–	2.57 h	11 µL/min/mg	–	–	–	–	COc1ccc(-c2nc(-c3ccc(S(C)(=O)=O)cc3)cnc2N)cn1
–	1.7	–	> 4.17 h	< 7 µL/min/mg	–	–	–	–	COc1ccc(-c2cc(-c3ccc(S(C)(=O)=O)cc3)nnc2N)cn1
–	2.9	–	> 4.17 h	< 7 µL/min/mg	–	–	–	–	COc1ccc(-c2csc3c(-c4ccc(S(C)(=O)=O)cc4)cnc(N)c23)cn1
–	2.8	–	> 4.17 h	< 7 µL/min/mg	Stable	1000 nM	1500 nM	24.3 µM·h	CS(=O)(=O)c1ccc(-c2cnc(N)c(-c3ccc(C(F)(F)F)nc3)n2)cc1
–	2.8	–	2.58 h	11 µL/min/mg	–	300 nM	500 nM	6.4 µM·h	CS(=O)(=O)c1ccc(-c2cnc(N)c(-c3ccc(C(F)(F)F)cc3)n2)cc1
–	–	–	> 4.17 h	< 7 µL/min/mg	–	–	–	–	Nc1ncc(-c2ccc(C(=O)N3CCOCC3)cc2)nc1-c1ccc(C(F)(F)F)nc1
–	3.2	–	> 4.17 h	< 7 µL/min/mg	–	10 nM	1100 nM	0.01 µM·h	Nc1ncc(-c2ccc(C(=O)N3CCOCC3)cc2)nc1-c1ccc(C(F)(F)F)cc1
–	3.1	–	3.62 h	8 µL/min/mg	–	10 nM	1100 nM	0.01 µM·h	CCS(=O)(=O)c1ccc(-c2cnc(N)c(-c3ccc(C(F)(F)F)nc3)n2)cc1
–	2.8	–	1.85 h	12 µL/min/mg	–	10 nM	2000 nM	0.01 µM·h	CNS(=O)(=O)c1ccc(-c2cnc(N)c(-c3ccc(C(F)(F)F)nc3)n2)cc1
–	2.6	–	–	–	–	–	–	–	CNc1ncc(-c2ccc(S(C)(=O)=O)cc2)cc1-c1ccc(OC)nc1
–	1.8	–	> 4.17 h	< 7 µL/min/mg	–	–	–	–	COc1ccc(-c2cc(-c3ccc(S(C)(=O)=O)cc3)cnc2NCCCCN)cn1
–	3.3	–	3.97 h	7.3 µL/min/mg	–	–	–	–	COc1ccc(-c2cc(-c3ccc(S(C)(=O)=O)cc3)cnc2I)cn1
–	1.7	–	–	–	–	–	–	–	COc1ccc(-c2cc(-c3ccc(S(C)(=O)=O)cc3)cnc2O)cn1
–	3.7	–	2.03 h	14.2 µL/min/mg	–	–	–	–	CCOc1ncc(-c2ccc(S(C)(=O)=O)cc2)cc1-c1ccc(OC)nc1
–	3	–	–	–	–	–	–	–	COc1ccc(-c2cc(-c3ccc(S(C)(=O)=O)cc3)cnc2C(F)(F)F)cn1
–	2.3	–	–	–	–	–	–	–	COc1ccc(-c2nc(-c3ccc(S(C)(=O)=O)cc3)ccc2N)cn1
–	2.8	–	> 4.17 h	< 7 µL/min/mg	–	–	–	–	COc1ccc(-c2cc(-c3ccc(S(C)(=O)=O)cc3)ccc2N)cn1
–	2.2	–	4.68 h	6.2 µL/min/mg	–	–	–	–	COc1ccc(-c2cc(-c3ccc(S(C)(=O)=O)cc3)cnc2N)cn1
